Reference: ChEMBL document CHEMBL4049435, “Development of a Series of Kynurenine 3-Monooxygenase Inhibitors Leading to a Clinical Candidate for the Treatment of Acute Pancreatitis” (J Med Chem, 2017)
Active and inactive are the calls of the source. The rule behind the calls is not given here.

Tests used:
[1] = biological target: T1, Kynurenine 3-monooxygenase (Homo sapiens, UniProt O15229)
Target sequence in this assay (O15229 whole entry, looked up): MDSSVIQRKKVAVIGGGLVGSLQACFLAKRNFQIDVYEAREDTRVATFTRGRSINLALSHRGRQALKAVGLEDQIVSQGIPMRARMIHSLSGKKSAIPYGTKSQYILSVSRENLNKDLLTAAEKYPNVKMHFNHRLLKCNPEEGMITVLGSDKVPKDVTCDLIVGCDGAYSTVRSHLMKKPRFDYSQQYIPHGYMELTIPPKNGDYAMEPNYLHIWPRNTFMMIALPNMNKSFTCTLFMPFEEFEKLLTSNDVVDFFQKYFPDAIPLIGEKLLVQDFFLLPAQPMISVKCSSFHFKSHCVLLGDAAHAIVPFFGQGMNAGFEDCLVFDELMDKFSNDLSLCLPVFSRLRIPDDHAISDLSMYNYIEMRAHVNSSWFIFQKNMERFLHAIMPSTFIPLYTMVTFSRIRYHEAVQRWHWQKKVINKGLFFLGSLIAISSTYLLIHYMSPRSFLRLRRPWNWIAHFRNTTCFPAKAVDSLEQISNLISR

[2] = Permeability of the compound by PAMPA; type: physicochemical; conditions: read-out: permeability
[3] = Protein binding in human plasma; type: ADME, cell-free; conditions: read-out: PPB (converted)
serum albumin = serum albumin (Homo sapiens, UniProt P02768); test: Binding affinity to human serum albumin by HPLC analysis; type: ADME; conditions: read-out: PB (converted)
Chain of serum albumin (P02768 whole entry): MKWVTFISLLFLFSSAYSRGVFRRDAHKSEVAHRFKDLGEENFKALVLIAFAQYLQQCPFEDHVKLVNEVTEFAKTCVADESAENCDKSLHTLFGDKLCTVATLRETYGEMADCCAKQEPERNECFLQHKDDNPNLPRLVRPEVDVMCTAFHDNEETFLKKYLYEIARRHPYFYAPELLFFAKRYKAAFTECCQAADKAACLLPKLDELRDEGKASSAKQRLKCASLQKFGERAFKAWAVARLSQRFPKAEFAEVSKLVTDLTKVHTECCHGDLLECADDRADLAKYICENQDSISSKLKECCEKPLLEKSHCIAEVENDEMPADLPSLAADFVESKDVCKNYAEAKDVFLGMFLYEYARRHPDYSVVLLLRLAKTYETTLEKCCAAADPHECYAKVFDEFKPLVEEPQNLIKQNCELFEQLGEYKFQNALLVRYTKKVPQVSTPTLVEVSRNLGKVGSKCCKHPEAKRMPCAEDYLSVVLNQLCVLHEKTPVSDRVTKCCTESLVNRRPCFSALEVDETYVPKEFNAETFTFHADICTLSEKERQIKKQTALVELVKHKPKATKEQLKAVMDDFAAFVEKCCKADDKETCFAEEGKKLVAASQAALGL

[4] = biological target: T1, Kynurenine 3-monooxygenase; test: Inhibition of full length human GST-tagged KMO expressed in baculovirus infected Sf9 insect cell membranes using kynurenine as substrate measured after 1 hr by RapidFire high-throughput mass spectrometric analysis
Target sequence in this assay (O15229 whole entry): as the sequence (O15229 whole entry, looked up) above

[5] = Lipophilicity, log D of the compound at pH 7.4 by RP-HPLC analysis; type: physicochemical; conditions: buffer
[6] = biological target: T1, Kynurenine 3-monooxygenase; remark: listed apart in the source
Target sequence in this assay (O15229 whole entry): as the sequence (O15229 whole entry, looked up) above

[7] = Solubility of the compound in saline measured after 24 hrs; type: physicochemical
[8] = Volume of distribution in Beagle dog at 1 mg/kg, iv by LC-MS/MS analysis; type: ADME, organism-based, Canis lupus familiaris; conditions: in vivo
[9] = Half life of the compound at pH 6 under oxidative condition; type: physicochemical
[10] = Protein binding in Han-Wistar rat plasma at 1 mg/kg, iv by LC-MS/MS analysis; type: ADME, organism-based; conditions: read-out: PPB (converted)
Plasma [11] = test: (§1) Unbound fraction in rat plasma at […], iv administered as bolus dose followed by […], iv infusion for 3 hrs; type: ADME, organism-based; conditions: in vivo
[12] = Clearance in Beagle dog blood at 1 mg/kg, iv by LC-MS/MS analysis; type: ADME, organism-based, Canis lupus familiaris; conditions: whole blood
Plasma [13] = test: as §1; type: ADME, organism-based; conditions: in vivo; remark: listed apart in the source
[14] = Half life in Han-Wistar rat at 1 mg/kg, iv by LC-MS/MS analysis; type: ADME, organism-based; conditions: in vivo
[15] = Half life in Beagle dog at 1 mg/kg, iv by LC-MS/MS analysis; type: ADME, organism-based, Canis lupus familiaris; conditions: in vivo
[16] = Stability of the compound in presence of light measured after 12 hrs; type: physicochemical; conditions: read-out: Stability
[17] = Clearance in Han-Wistar rat blood at 1 mg/kg, iv by LC-MS/MS analysis; type: ADME, organism-based; conditions: whole blood
[18] = Volume of distribution at steady state in Han-Wistar rat at 1 mg/kg, iv by LC-MS/MS analysis; type: ADME, organism-based; conditions: in vivo, read-out: Vdss
[19] = biological target: Kynurenine 3-monooxygenase (Rattus norvegicus, UniProt O88867); test: Inhibition of rat KMO expressed in HEK293 cells using kynurenine as substrate measured after 20 hrs by LC-MS/MS analysis; type: cell-based; conditions: read-out: Ki(app)
Chain of Kynurenine 3-monooxygenase (Rattus norvegicus, UniProt O88867) (O88867 whole entry): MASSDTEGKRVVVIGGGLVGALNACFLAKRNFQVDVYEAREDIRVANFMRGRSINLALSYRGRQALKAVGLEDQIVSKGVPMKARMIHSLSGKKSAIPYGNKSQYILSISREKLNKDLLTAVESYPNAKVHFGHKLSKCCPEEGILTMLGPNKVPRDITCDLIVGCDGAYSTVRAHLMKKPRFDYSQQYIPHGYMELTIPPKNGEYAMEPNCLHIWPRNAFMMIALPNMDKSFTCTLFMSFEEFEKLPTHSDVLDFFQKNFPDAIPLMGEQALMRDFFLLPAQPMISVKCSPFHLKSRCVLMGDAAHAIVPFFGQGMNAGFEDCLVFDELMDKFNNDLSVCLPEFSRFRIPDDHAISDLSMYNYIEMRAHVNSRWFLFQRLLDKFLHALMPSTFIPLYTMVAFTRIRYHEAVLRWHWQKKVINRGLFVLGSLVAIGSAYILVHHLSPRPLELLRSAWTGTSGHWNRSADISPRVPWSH

Plasma [20] = test: as §1; type: ADME, organism-based; conditions: in vivo; remark: listed apart in the source
Rattus norvegicus [21] = test: Organoprotective activity in lung of acute pancreatitis rat model assessed as inflammatory infiltrates at 20 mg/kg, iv as bolus dose administered 1 hr post acute pancreatitis induction followed by drug administration at 2.2 mg/kg/hr, iv as infusion over 5 hrs by haematoxylin/eosin stain based light microscopic analysis; type: functional, organism-based
Rattus norvegicus [22] = test: Decrease in 3-hydroxykynurenine level in plasma of rat model of cerulean-induced acute pancreatitis at 20 mg/kg, iv administered as bolus dose followed by 2.2 mg/kg/hr 5 hrs iv infusion; type: functional, organism-based
Rattus norvegicus [23] = test: Increase in kynurenic acid levels in iv dosed rat plasma measured post last dose; type: functional, organism-based
Rattus norvegicus [24] = test: Increase in anthranilic acid levels in iv dosed rat plasma measured post last dose; type: functional, organism-based
Rattus norvegicus [25] = test: (§2) Effect on circulating tryptophan levels in rat plasma at […], iv administered as bolus dose followed by […], iv infusion for 3 hrs; type: functional, organism-based
Rattus norvegicus [26] = test: (§3) In vivo inhibition of KMO in rat assessed as increase in kynurenine levels in plasma at […], iv administered as bolus followed by […], iv infusion for 3 hrs; type: functional, organism-based
Homo sapiens = organism: Homo sapiens; test: Inhibition of IDO (unknown origin)
Rattus norvegicus [27] = test: as §3; type: functional, organism-based; remark: listed apart in the source
Rattus norvegicus [28] = test: In vivo inhibition of KMO in iv dosed rat assessed as decrease in circulating 3-hydroxykynurenine levels in plasma measured post last dose; type: functional, organism-based
Rattus norvegicus [29] = test: as §2; type: functional, organism-based; remark: listed apart in the source
Rattus norvegicus [30] = test: as §2; type: functional, organism-based; remark: listed apart in the source
Rattus norvegicus [31] = test: Organoprotective activity in lung of acute pancreatitis rat model assessed as decrease in levels of protein leak in bronchoalveolar lavage fluid at 20 mg/kg, iv as bolus dose administered 1 hr post acute pancreatitis induction followed by drug administration at 2.2 mg/kg/hr, iv as infusion over 5 hrs; type: functional, organism-based
[32] = biological target: T1, Kynurenine 3-monooxygenase; remark: listed apart in the source
Target sequence in this assay (O15229 whole entry, looked up): as the sequence (O15229 whole entry, looked up) above

[33] = biological target: T2, Kynurenine--oxoglutarate transaminase 1 (Homo sapiens) (UniProt Q16773); test: Inhibition of KAT1 (unknown origin)
T2 sequence (whole entry): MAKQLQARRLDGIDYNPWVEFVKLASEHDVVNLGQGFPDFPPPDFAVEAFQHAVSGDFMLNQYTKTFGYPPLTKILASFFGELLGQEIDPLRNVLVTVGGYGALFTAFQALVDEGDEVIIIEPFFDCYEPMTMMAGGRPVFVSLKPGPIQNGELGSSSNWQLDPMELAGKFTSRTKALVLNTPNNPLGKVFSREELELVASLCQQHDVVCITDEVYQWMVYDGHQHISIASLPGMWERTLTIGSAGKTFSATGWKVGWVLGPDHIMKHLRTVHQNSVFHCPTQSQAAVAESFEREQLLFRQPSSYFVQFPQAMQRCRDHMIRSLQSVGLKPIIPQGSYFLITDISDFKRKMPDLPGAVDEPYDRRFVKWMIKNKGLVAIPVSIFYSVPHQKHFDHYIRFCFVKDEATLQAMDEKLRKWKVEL

Rattus norvegicus [34] = test: Organoprotective activity against acute pancreatitis-induced kidney damage in rat assessed as decrease in plasma creatinine levels at 20 mg/kg, iv as bolus dose administered 1 hr post acute pancreatitis induction followed by drug administration at 2.2 mg/kg/hr, iv as infusion over 5 hrs; type: functional, organism-based
[35] = biological target: Kynurenine/alpha-aminoadipate aminotransferase, mitochondrial (Homo sapiens) (UniProt Q8N5Z0); test: Inhibition of KAT2 (unknown origin)
Chain of Kynurenine/alpha-aminoadipate aminotransferase, mitochondrial (Homo sapiens) (Q8N5Z0 30-425 limits assumed): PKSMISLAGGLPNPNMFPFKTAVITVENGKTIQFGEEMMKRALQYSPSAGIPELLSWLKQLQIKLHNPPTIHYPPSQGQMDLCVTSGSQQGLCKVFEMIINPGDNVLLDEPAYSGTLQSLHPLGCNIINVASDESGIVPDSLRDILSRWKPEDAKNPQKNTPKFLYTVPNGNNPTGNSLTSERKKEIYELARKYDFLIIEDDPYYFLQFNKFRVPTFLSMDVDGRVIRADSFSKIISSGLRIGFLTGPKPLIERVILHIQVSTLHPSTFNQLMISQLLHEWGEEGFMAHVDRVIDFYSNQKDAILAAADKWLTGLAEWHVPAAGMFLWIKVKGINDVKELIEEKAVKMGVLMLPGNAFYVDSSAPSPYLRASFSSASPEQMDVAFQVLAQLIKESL

Rattus norvegicus [36] = test: Organoprotective activity in lung of acute pancreatitis rat model assessed as alveolar-epithelial thickening at 20 mg/kg, iv as bolus dose administered 1 hr post acute pancreatitis induction followed by drug administration at 2.2 mg/kg/hr, iv as infusion over 5 hrs by haematoxylin/eosin stain based light microscopic analysis; type: functional, organism-based
Rattus norvegicus [37] = test: Protection against multiple organ dysfunction syndrome in acute pancreatitis-induced rat assessed as decrease in stress response plasma glucose levels at 20 mg/kg, iv as bolus dose administered 1 hr post acute pancreatitis induction followed by drug administration at 2.2 mg/kg/hr, iv as infusion over 5 hrs; type: functional, organism-based
Rattus norvegicus [38] = test: Increase in kynurenine level in plasma of rat model of cerulean-induced acute pancreatitis at 20 mg/kg, iv administered as bolus dose followed by 2.2 mg/kg/hr 5 hrs iv infusion; type: functional, organism-based
Rattus norvegicus [39] = test: as §3; type: functional, organism-based; remark: listed apart in the source
Rattus norvegicus [40] = test: Organoprotective activity in kidney of acute pancreatitis […] assessed as reduction in apoptotic cell count in the outer medullary stripe at 20 mg/kg, iv as bolus dose administered 1 hr post acute pancreatitis induction followed by drug administration at 2.2 mg/kg/hr, iv as infusion over 5 hrs by TUNEL staining analysis; type: functional, organism-based
Rattus norvegicus [41] = test: Organoprotective activity against acute pancreatitis-induced pancreatic injury in rat assessed as decrease in serum amylase levels at 20 mg/kg, iv as bolus dose administered 1 hr post acute pancreatitis induction followed by drug administration at 2.2 mg/kg/hr, iv as infusion over 5 hrs; type: functional, organism-based
[42] = biological target: Tryptophan 2,3-dioxygenase (Homo sapiens) (UniProt P48775); test: Inhibition of TDO (unknown origin)
Chain of Tryptophan 2,3-dioxygenase (Homo sapiens) (P48775 whole entry, looked up): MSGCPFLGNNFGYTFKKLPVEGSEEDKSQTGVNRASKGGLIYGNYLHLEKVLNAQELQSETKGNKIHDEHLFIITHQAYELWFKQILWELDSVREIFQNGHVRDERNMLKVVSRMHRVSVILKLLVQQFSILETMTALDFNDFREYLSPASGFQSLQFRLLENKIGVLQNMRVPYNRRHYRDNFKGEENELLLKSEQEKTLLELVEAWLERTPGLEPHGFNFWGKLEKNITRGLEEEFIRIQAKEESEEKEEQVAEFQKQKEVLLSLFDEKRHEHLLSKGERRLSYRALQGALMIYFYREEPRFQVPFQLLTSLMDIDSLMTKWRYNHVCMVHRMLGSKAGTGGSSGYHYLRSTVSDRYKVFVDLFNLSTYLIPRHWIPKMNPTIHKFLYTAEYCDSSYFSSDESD

[43] = biological target: T3, Kynureninase (Homo sapiens) (UniProt Q16719); test: Inhibition of kynureninase (unknown origin)
T3 sequence (whole entry): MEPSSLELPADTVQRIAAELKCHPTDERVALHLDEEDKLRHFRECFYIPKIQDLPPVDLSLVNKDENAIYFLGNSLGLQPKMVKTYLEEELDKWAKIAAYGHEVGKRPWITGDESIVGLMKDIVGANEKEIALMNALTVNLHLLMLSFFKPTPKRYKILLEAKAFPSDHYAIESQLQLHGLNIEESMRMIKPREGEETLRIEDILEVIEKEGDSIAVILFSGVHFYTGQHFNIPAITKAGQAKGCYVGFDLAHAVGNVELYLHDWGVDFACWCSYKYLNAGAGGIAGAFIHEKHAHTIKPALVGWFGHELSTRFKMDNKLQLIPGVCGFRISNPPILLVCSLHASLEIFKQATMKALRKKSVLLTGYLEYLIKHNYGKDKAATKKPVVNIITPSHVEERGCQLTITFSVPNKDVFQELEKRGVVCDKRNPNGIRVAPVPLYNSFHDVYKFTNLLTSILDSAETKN

[44] = Drug uptake in plasma of rat model of cerulean-induced acute pancreatitis at 20 mg/kg, iv administered as bolus dose followed by 2.2 mg/kg/hr, iv infusion for 5 hrs; type: ADME, organism-based

O=C(O)CCn1c(=O)oc2cc(OCc3ccccn3)c(Cl)cc21
T1/2 [1]: 0.5 h

C[C@@H](Oc1cc2oc(=O)n(CCC(=O)O)c2cc1Cl)c1cccnn1
Papp [2]: < 0.3 ×10⁻⁶ cm/s | fraction unbound [3]: 0.319 | fraction unbound (serum albumin): 0.409 | IC50 [4]: 1.26 nM | logD [5]: 0.83 | IC50 [6]: 631 nM

NC(CO)(CO)CO.O=C(O)CCn1c(=O)oc2cc(OCC3CC3)c(Cl)cc21
Papp [2]: 1.9 ×10⁻⁶ cm/s | solubility at 24 h [7]: > 2060 µg/mL | fraction unbound [3]: 0.04 | fraction unbound (serum albumin): 0.038 | IC50 [4]: 10 nM | logD [5]: 2.09 | IC50 [6]: 1580 nM

C[C@@H](Oc1cc2onc(CCC(=O)O)c2cc1Cl)c1ccccn1 [GSK-065]
Vd [8]: 0.36 L/kg | half-life [9]: > 1000 h | fraction unbound [10]: 0.022 | Cp(f) (Plasma [11]): 3 nM | clearance [12]: 0.93 mL/min/kg | Cp(f) (Plasma [13]): 405 nM | half-life [14]: 6.6 h | half-life [15]: 5.8 h | remaining at 12 h [16]: 97.7% | clearance [17]: 0.8 mL/min/kg | Vd [18]: 0.42 L/kg | Ki [19]: 45 nM | Cp(f) (Plasma [20]): 50 nM

C[C@@H](Oc1cc2oc(=O)n(CCC(=O)O)c2cc1Cl)c1ccccn1
T1/2 [1]: 2 h

NC(CO)(CO)CO.O=C(O)CCn1c(=O)oc2cc(OC3CC3)c(Cl)cc21
Papp [2]: 1.5 ×10⁻⁶ cm/s | solubility at 24 h [7]: > 2400 µg/mL | fraction unbound [3]: 0.031 | fraction unbound (serum albumin): 0.057 | IC50 [4]: 3.16 nM | logD [5]: 1.64 | IC50 [6]: 1260 nM

C[C@@H](Oc1cc2onc(CCC(=O)O)c2cc1Cl)c1ccccn1
Activity (Rattus norvegicus [21]): Active | Activity (Rattus norvegicus [22]): Active | Activity (Rattus norvegicus [23]): Dose-dependent effect | Activity (Rattus norvegicus [24]): Dose-dependent effect | Activity (Rattus norvegicus [25]): inactive | inhibition (Rattus norvegicus [26]): Active | inhibition (Homo sapiens): inactive | inhibition (Rattus norvegicus [27]): Active | inhibition (Rattus norvegicus [28]): Dose-dependent effect | Activity (Rattus norvegicus [29]): inactive | Activity (Rattus norvegicus [30]): inactive | Activity (Rattus norvegicus [31]): Active | T1/2 [32]: 10 h | inhibition [33]: inactive | Activity (Rattus norvegicus [34]): Active | inhibition [35]: inactive | Activity (Rattus norvegicus [36]): Active | Activity (Rattus norvegicus [37]): Active | Activity (Rattus norvegicus [38]): Active | inhibition (Rattus norvegicus [39]): Active | Activity (Rattus norvegicus [40]): Active | Activity (Rattus norvegicus [41]): Active | inhibition [42]: inactive | inhibition [43]: inactive

C[C@@H](Oc1cc2onc(CCC(=O)O)c2cc1Cl)c1ccccn1.NCCO
concentration at 5 h [44]: 600000 nM
